Experimental data: US20180008569A1, “PROSTAGLANDIN TRANSPORTER INHIBITORS FOR INHIBITING OVULATION” (TEL HASHOMER MEDICAL RESEARCH INFRASTRUCTURE AND SERVICES …, priority 2015, published 2018)
Marks after values point to notes of the source that are not given here. Each block holds one molecule with its values, some of them ahead of it.

Legend:
PGT [1] = target: PGT (Homo sapiens, UniProt Q92959); experiment: PGE2 concentration in media of MGCs by enzyme immunoassay (EIA); type: cell-based; design: basal media concentration of PGE2: dose or concentration left out as unconfirmed
PGT [2] = target: T1, PGT (Mus musculus, UniProt Q9EPT5); experiment: Ovarian morphology (histology) in superovulated mice
PGT [3] = target: T1, PGT; experiment: Ovulated oocyte count in PMSG-primed/hCG-triggered immature female mice; type: in vivo; design: from tissue; host or cells: whole animal: PMSG-primed/hCG-triggered immature female mice (ovary)
[4] = tested on: PGE2 downstream target genes; experiment: Ovarian expression of ovulatory cascade, PG receptor and PG metabolism genes by qPCR in PMSG-primed/hCG+DIDS-treated mice; type: in vivo
Method: To characterize the ovulation-blocking effect of PGT at the molecular level, the effect of DIDS on the LH/CGR dependent activities was evaluated. Key representative genes of the ovulatory cascade were studied, including, oocyte maturation genes: amphiregulin (AREG), epiregulin (EREG), progesterone receptor (PR); cumulus expansion genes: tumor necrosis factor alpha-induced protein (TNFAIP6); follicular rupture related genes: disintegrin and metalloproteinase with thrombospondin motifs 1 (ADAMTS1), cathepsin L (CTSL); the ovulatory related genes: follicle stimulating hormone receptor (FSHR) and luteinizing hormone/chorionic gonadotropin receptor (LHCGR); and steroidogenesis related genes: steroidogenic acute regulatory protein (StAR) and cholesterol side cleavage chain (p450SCC). After total RNA was extracted from the ovaries of PMSG-primed/hCG+DIDS-treated mice and converted to cDNA, the expression of genes of interest was quantified by qPCR.

[5] = Serum progesterone levels (corpus luteum function) in PMSG-primed/hCG-triggered mice; type: in vivo; settings: concurrent treatment with DIDS, 24 hours post-hCG
PGT [6] = target: T1, PGT; experiment: Oocyte maturation and cumulus expansion in vivo in mice; design: from tissue; host or cells: whole animal: PMSG-primed/hCG-triggered immature female mice (ovary)
PGT transcripts in MGCs = experiment: PGT transcripts (qPCR) in cultured FSH-pretreated human mural granulosa cells; settings: for FSK-induced upregulation of PGT expression: then FSK 10 μM 24 hours; for hCG-induced upregulation of PGT expression: then hCG 1U/ml 24 hours
Method: FSH-pretreated MGCs were then exposed to vehicle (PBS) or AREG for 24 hours. PGT was quantified by qPCR and normalized to/3-actin expression. Data represent the mean±SEM of three independent experiments.

EP receptor = experiment: Intracellular cAMP in MGCs after PGE2 pretreatment (EP receptor desensitization); type: cell-based, human; settings: pretreated with 10 μM PGE2 10 min, washed, 10 μM PGE2 additional 10 min
Method: Inhibition of PGT activity or the provision of excess PGE2 results in the desensitization of the prostaglandin receptors […] and EP4 and thereby in a reduction in PGE2 signaling. An important second messenger for PGE2 is intracellular cAMP resulting from activation of either EP2 or EP4 receptor by PGE2. Thus, the hypothesis that excess PGE2 results in reduced PG signaling in human granulosa cells was tested. MGCs were incubated with 10 μM PGE2 for 10 min or pretreated with 10 μM PGE2 for 10 min, washed and then treated with 10 μM PGE2 for additional 10 min cAMP levels were measured in the cell lysate and was normalized to total protein content.

EP4 receptor = EP4 receptor mRNA expression in FSH-pretreated MGCs; type: cell-based, human; settings: 10 μM PGE2, 24 hours
[7] = tested on: whole ovarian PGT transcripts; experiment: Whole ovarian PGT transcripts in PMSG-primed/hCG-triggered immature mouse superovulation model; type: in vivo; settings: PMSG for 48 hours
[8] = Homo sapiens, read-out: increase in PGT transcripts (fold induction)

T1 sequence (Q9EPT5 whole entry): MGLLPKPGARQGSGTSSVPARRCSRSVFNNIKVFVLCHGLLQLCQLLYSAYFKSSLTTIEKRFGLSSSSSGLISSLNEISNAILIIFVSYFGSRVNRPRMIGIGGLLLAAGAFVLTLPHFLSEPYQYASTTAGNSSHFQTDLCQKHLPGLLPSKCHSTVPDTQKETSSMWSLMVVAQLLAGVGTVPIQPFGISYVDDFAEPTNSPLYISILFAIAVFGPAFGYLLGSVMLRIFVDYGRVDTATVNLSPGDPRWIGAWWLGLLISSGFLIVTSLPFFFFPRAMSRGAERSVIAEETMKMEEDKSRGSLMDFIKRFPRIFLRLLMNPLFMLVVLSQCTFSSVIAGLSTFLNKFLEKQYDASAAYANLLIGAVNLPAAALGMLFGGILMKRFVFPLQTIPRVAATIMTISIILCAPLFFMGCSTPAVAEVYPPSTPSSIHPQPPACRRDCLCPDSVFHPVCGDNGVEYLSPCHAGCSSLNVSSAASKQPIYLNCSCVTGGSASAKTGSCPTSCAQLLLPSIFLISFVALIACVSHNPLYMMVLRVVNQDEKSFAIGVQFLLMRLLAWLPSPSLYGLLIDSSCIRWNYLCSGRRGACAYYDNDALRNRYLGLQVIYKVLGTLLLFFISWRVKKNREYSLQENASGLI

Molecule: Cc1c(C2(c3cc(Br)c(O)c(Br)c3C)OS(=O)(=O)c3ccccc32)cc(Br)c(O)c1Br [BCG, Bromocresol Green]
increase in the media concentration of PGE2 relative to controls (PGT [1]; co-treatment hCG 1U/ml + BCG 50 mM, 24 hours): ~3 fold | basal media concentration of PGE2 (PGT [1]; no hCG): without effect | ovarian morphology (PGT [2]; hCG+BCG 350 mg/kg, 16 hours after hCG): un-ruptured follicles with entrapped oocytes | ovulation (PGT [3]; BCG at 500 and 350 mg/kg with hCG, 16 hours): complete blockade of ovulation | No. ova/ovulating mice (Mean ± SEM) (PGT [3]; hCG + BCG 250 mg/kg, 16 hours): 58.4 ± 7.4 | Range of oocytes in ovulating mice (PGT [3]; hCG + BCG 250 mg/kg, 16 hours): 12-61 | No. ova/ovulating mice (Mean ± SEM) (PGT [3]; hCG + BCG 300 mg/kg, 16 hours): 1.3* | Range of oocytes in ovulating mice (PGT [3]; hCG + BCG 300 mg/kg, 16 hours): 1-2 | No. ova/ovulating mice (Mean ± SEM) (PGT [3]; hCG + BCG 350 mg/kg, 16 hours): 0* | No. ova/ovulating mice (Mean ± SEM) (PGT [3]; hCG + BCG 500 mg/kg, 16 hours): 0*

PGDH expression ([4]; addition of DIDS): not affected | downregulation of EP2 by hCG ([4]; addition of DIDS): abolished | reduction of FSHR mRNA in response to hCG ([4]; addition of DIDS): abolished | upregulation by hCG of COX-2 ([4]; addition of DIDS): inhibited | upregulation by hCG of EP4 ([4]; addition of DIDS): inhibited | upregulation by hCG of PGT ([4]; addition of DIDS): inhibited | expression of most of the ovulation related transcripts studied (except p450SCC and LHCGR) ([4]; ovaries of PMSG-primed/hCG+DIDS-treated mice): profound inhibition | ovulated oocyte count (PGT [3]; different concentrations of DIDS at time of hCG, 16 hours): dose-dependent decrements | No. of oocytes in ovulating mice (PGT [3]; hCG + DIDS 5 mg/kg, 16 hours): 7-77 | No. ova/ovulating mice (Mean ± SEM) (PGT [3]; hCG + DIDS 5 mg/kg, 16 hours): 53.5 ± 5.1 | No. of oocytes in ovulating mice (PGT [3]; hCG + DIDS 10 mg/kg, 16 hours): 10-60 | No. ova/ovulating mice (Mean ± SEM) (PGT [3]; hCG + DIDS 10 mg/kg, 16 hours): 27.4 ± 6.8 | No. of oocytes in ovulating mice (PGT [3]; hCG + DIDS 20 mg/kg, 16 hours): 1-51 | No. ova/ovulating mice (Mean ± SEM) (PGT [3]; hCG + DIDS 20 mg/kg, 16 hours): 22 ± 6.8 | No. ova/ovulating mice (Mean ± SEM) (PGT [3]; hCG + DIDS 50 mg/kg, 16 hours): 9 | inhibition at 50 mg/kg (PGT [3]; mouse, read-out: inhibition of ovulation): 95.5% | cumulus state of COCs (PGT [6]; DIDS, 24 hours following treatment with hCG): compact cumulus | oocytes at GV (PGT [6]; hCG + DIDS): 100% (102/102) | oocytes at MI (PGT [6]; hCG + DIDS): 0% (0/102) | oocytes at MII (PGT [6]; hCG + DIDS): 0% (0/102) | cumulus state of COCs (PGT [6]; hCG and DIDS 50 mg/kg): compact cumulus | oocyte maturation stage (PGT [6]; hCG+DIDS-treated mice): immature and at the GV stage | cumuli of recovered cumulus-oocyte-complexes (PGT [6]; lower doses of DIDS): expanded normal-appearing cumuli | denuded oocytes from recovered cumulus-oocyte-complexes (PGT [6]; lower doses of DIDS): morphologically normal, mature (M2)
Molecule: O=S(=O)(O)c1cc(N=C=S)ccc1C=Cc1ccc(N=C=S)cc1S(=O)(=O)O [DIDS, 4,4′-Diisothiocyanatostilbene-2,2′-disulfonic acid]
serum progesterone levels [5]: significant reduction | ovarian morphology (PGT [2]; hCG+DIDS, 16 hours after hCG): numerous unruptured preovulatory follicles with entrapped oocytes | ovarian morphology (PGT [2]; hCG+DIDS, forty hours after hCG injection): still contained entrapped oocytes in preovulatory follicles

Molecule: C=C[C@@]1(C)CC(=O)[C@]2(O)[C@@]3(C)[C@@H](O)CCC(C)(C)[C@@H]3[C@H](O)[C@H](OC(C)=O)[C@@]2(C)O1 [FSK, forskolin]
fold induction at 10 µM (PGT transcripts in MGCs; [8]): 25

Molecule: O=S(=O)(NCCNC/C=C/c1ccc(Br)cc1)c1cccc2cnccc12 [H89]
FSK-induced upregulation of PGT expression (PGT transcripts in MGCs; pretreatment 10 μM for 1 hour): largely inhibited | hCG-induced upregulation of PGT expression (PGT transcripts in MGCs; pretreatment 10 μM for 1 hour): largely inhibited

EP4 receptor mRNA expression compared to controls (EP4 receptor): significant downregulation
Molecule: CCCCC[C@H](O)/C=C/[C@H]1[C@H](O)CC(=O)[C@@H]1C/C=C\CCCC(=O)O [PGE2, Prostaglandin E2]
intracellular cAMP in response to further PGE2 stimulation (EP receptor): significantly reduced accumulation of intracellular cAMP

Molecule: CCCCCCCCCCCCCC(=O)O[C@@H]1[C@@H](C)[C@@]2(O)[C@@H](C=C(CO)C[C@]3(O)C(=O)C(C)=C[C@@H]23)[C@@H]2C(C)(C)[C@]12OC(C)=O [PMA, phorbol myristate acetate]
fold induction at 0.02 µM (PGT transcripts in MGCs; [8]): 11

Molecule: N#CC(=C(/N)Sc1ccccc1N)/C(C#N)=C(\N)Sc1ccccc1N [U0126]
FSK-induced upregulation of PGT expression (PGT transcripts in MGCs; pretreatment 10 μM for 1 hour): markedly inhibited | PMA-mediated upregulation of PGT transcripts (PGT transcripts in MGCs; pretreatment 10 μM for 1 hour, then PMA 20 nM 24 hours): markedly inhibited | hCG-induced upregulation of PGT expression (PGT transcripts in MGCs; pretreatment 10 μM for 1 hour): effectively abolished

Molecule: Pregnant mare serum gonadotropin [PMSG]
level of PGT in the ovaries relative to control (saline) [7]: 2.3 folds

B1: amphiregulin (protein, UniProt P31955 100-248, looked up)
Amphiregulin: VIKPKKNKTEGEKSTEKPKRKKKGGKNGKGRRNKKKKNPCTAKFQNFCIHGECRYIENLEVVTCNCHQDYFGERCGEKSMKTHSEDDKDLSKIAVVAVTIFVSAIILAAIGIGIVITVHLWKRYFREYEGETEERRRLRQENGTVHAIA
induction of PGT expression (PGT transcripts in MGCs; FSH-pretreated MGCs exposed to AREG for 24 hours, vs vehicle (PBS)): 3 fold
